Experimental data as given in US10081662B2, “Modified relaxin B chain peptides” (The Florey Institute of Neuroscience and Mental Health, priority 2014, dated 2018).
Peptide text beside a SMILES is read from it.

Key:
[1] = tested on: mouse model of isoproterenol (ISO) induced cardiac fibrosis; assay: Mouse model of isoproterenol-induced cardiomyopathy (cardiac fibrosis); type: in vivo; settings: 129SV mice, 14 days, s.c. minipump; relative to isoproterenol treatment
From the text: (§1) Seven to eight-week old male 129SV mice (which are sensitive to tissue injury and fibrosis) and age-matched female Balb/c mice (which are sensitive to changes in airway hyperresponsiveness) were used for the induction of isoproterenol-induced cardiomyopathy and ovalbumin-induced chronic allergic airways disease, respectively. 16 five week-old male C57BL/6 mice were used in the induction of prostate cancer growth. All animals were obtained from Monash Animal Services (Monash University, Clayton, Victoria, Australia) and housed under standard conditions (maintained on an 12 h light-12 h dark lighting cycle with free access to food and water) in the Department of Pharmacology Animal Room at Monash University.
(§2) The mid zone of the male mouse heart and largest lung lobe from female Balb/c mice were fixed in 10% neutral buffered formalin for 24-48 h before being processed and embedded routinely in paraffin wax. Representative sections of tissue, 3-5 um each, were taken and stained with either picrosirius red (Samuel et al. 2011 Lab Invest 91, 675-690) for the detection of interstitial collagen or Masson's trichrome (Royce et al, 2009, Endocrinology 150, 2692-2699) for the detection of subepithelial basement membrane collagen deposition).
(§3) Changes in picrosirius-red stained interstitial collagen or epithelial thickness and subepithelial collagen (fibrosis) around the airway lumen from Masson's trichrome-stained sections; which were all captured (at ×20 magnification) using a SPOT digital camera (Q Imaging, Burnaby, BC, Canada) and analysed with Image J 1.3 software (National Institutes of Health, Bethesda, Md.). Four to five fields per mid zone of the heart or 4-5 airways (of 150-350 μm in diameter) per mouse were assessed. Epithelial thickness and subepithelial collagen regions were traced with a digital pen and the thickness of each region calculated by the imaging software. Results were expressed as mean thickness ([…]) of the 4-5 airways sampled.
The apical region of the heart or second largest lung lobe from each mouse was treated as described previously (Samuel C S, et at., 2003, FASEB J 17, 121-123; Royce et at. 2009, Endocrinology 150, 2692-2699) for the determination of hydroxyproline content. Hydroxyproline values were estimated based on a standard curve constructed with serial dilutions of a 0.1 mg/mL stock of trans-4-hydroxyproline-L-proline (Sigma-Aldrich). Hydroxyproline values were then converted to collagen content as detailed previously (Samuel CS, et al. 2004. Endocrinology 145, 4125-4133) and, in turn, divided by the dry weight of each corresponding left ventricular or lung tissue assessed to yield collagen concentration (a measure of fibrosis). […]

[2] = tested on: mouse model of OVA-induced chronic allergic airway disease; assay: Mouse model of OVA-induced chronic allergic airway disease; type: in vivo; settings: Balb/c mice
From the text: as §1
Twenty-four hours after the last vehicle/drug administration, methacholine-induced airway reactivity was assessed by invasive plethysmography as described before (Locke et al. 2007, Am J Respir Mol Biol 36, 625-632; Royce et al. 2009, Endocrinology 150, 2692-2699). Mice were anaesthetized intraperitoneally with 200 μg/g ketamine and 10 μg/g xylazine. Tracheotomy was performed using an 18-gauge tracheotomy tube and jugular vein cannulated with a 0.61 9 0.28 mm polyethylene tube (Microtube Extrusions, North Rocks, NSW, Australia), Mice were then placed in a plethysmograph chamber (Buxco Research Systems, Wilmington, N.C., USA) where increasing concentrations of acetyl-β-methacholine (from 31.25 μg/kg to 500 μg/kg) were delivered intravenously in five doses. After every dose, airway resistance and compliance were measured (Biosystem XA version 2.7.9; Buxco Electronics Inc, Wilmington, N.C., USA). The change in airway resistance calculated by the maximal resistance after each dose minus baseline resistance (phosphate buffered saline alone) was plotted against each dose of methacholine evaluated.
as §2, §3
The apical region of the heart or second largest lung lobe from each mouse was treated as described previously (Samuel C S, et at., 2003, FASEB J 17, 121-123; Royce et at. 2009, Endocrinology 150, 2692-2699) for the determination of hydroxyproline content. Hydroxyproline values were estimated based on a standard curve constructed with serial dilutions of a 0.1 mg/mL stock of trans-4-hydroxyproline-L-proline (Sigma-Aldrich). Hydroxyproline values were then converted to collagen content as detailed previously (Samuel CS, et al. 2004. Endocrinology 145, 4125-4133) and, in turn, divided by the dry weight of each corresponding left ventricular or lung tissue assessed to yield collagen concentration (a measure of fibrosis).
The inventors also tested the fibrosis preventing activity of B7-33 C11.23S in a model of chronic allergic airway disease (AAD). […]

[3] = tested on: MMP-2; assay: MMP-2 expression by gelatin zymography in human cardiac fibroblasts; type: cell-based; settings: gelatin zymography and densitometry
[4] = biological target: T1, RXFP1 (Homo sapiens, UniProt Q9HBX9); assay: cAMP reporter gene assay (pCRE β-galactosidase) in HEK-293T cells transfected with RXFP1; type: cell-based; settings: FIG. 3A, ERK data not shown
T1 construct: expressed in transfected cells; host or cells: HEK-293T
T1 sequence (Q9HBX9 1-757): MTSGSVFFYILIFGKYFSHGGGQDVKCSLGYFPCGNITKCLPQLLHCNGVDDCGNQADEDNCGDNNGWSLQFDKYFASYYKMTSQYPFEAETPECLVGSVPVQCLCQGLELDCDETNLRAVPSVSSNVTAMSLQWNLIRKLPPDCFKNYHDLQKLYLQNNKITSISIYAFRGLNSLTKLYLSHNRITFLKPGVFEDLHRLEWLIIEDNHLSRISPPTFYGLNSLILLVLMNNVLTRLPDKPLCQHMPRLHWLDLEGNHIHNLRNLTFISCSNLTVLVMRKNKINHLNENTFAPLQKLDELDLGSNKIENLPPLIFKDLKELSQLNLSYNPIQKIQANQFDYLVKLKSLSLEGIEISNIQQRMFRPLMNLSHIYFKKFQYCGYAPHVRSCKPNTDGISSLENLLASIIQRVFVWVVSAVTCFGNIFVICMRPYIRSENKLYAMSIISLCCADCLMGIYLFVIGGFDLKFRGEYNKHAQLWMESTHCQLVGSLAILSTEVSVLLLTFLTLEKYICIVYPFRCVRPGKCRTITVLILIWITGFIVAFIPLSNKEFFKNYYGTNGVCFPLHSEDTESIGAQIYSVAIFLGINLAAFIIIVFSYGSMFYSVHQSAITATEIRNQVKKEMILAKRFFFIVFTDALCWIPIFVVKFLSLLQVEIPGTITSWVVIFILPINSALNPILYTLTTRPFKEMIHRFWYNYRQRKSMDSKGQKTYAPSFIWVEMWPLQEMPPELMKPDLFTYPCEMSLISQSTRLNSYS

Q: `CC[C@H](C)[C@H](NC(=O)[C@H](C)NC(=O)[C@@H](NC(=O)[C@H](CCC(N)=O)NC(=O)[C@H](C)NC(=O)[C@H](CCCNC(=N)N)NC(=O)[C@@H](NC(=O)[C@H](CC(C)C)NC(=O)[C@H](CCC(=O)O)NC(=O)[C@H](CCCNC(=N)N)NC(=O)CNC(=O)[C@H](CO)NC(=O)[C@H](CC(C)C)NC(=O)[C@H](CCCCN)NC(=O)[C@@H](NC(=O)[C@@H](N)C(C)C)[C@@H](C)CC)C(C)C)[C@@H](C)CC)C(=O)N[C@@H](CO)C(=O)NCC(=O)N[C@@H](CCSC)C(=O)N[C@@H](CO)C(=O)N[C@H](C(=O)N[C@@H](Cc1c[nH]c2ccccc12)C(=O)N[C@@H](CO)C(=O)N[C@@H](CCCCN)C(=O)N[C@@H](CCCNC(=N)N)C(=O)N[C@@H](CO)C(=O)N[C@@H](CC(C)C)C(N)=O)[C@@H](C)O` [B7-33 C11.23S] (H-VIKLSGRELVRAQIAISGMSTWSKRSL-NH2) was tested. Which “Percentage of interstitial collagen in the left ventricle (picrosirius red)” value [1] did it give?
A: significantly reduced

Q: And the “Total left ventricular collagen concentration (hydroxyproline analysis)” value [1]?
A: significantly reduced

Q: And the “Airway hyper-responsiveness (change in airway resistance to methacholine)” value ([2]; OVA-induced increase, invasive plethysmography, FIG. 8D)?
A: attenuated

Q: And the “Mean airway epithelial thickness” value ([2]; compared to OVA treatment, FIG. 8B)?
A: significantly reduced

Q: And the “Total lung collagen content (hydroxyproline analysis)” value ([2]; relative to OVA treatment, FIG. 8C)?
A: normalised

Q: What about the “Induction of MMP-2 expression” value [3] of the same compound?
A: levels similar to those induced by the native H2 relaxin

Q: What about the “Activation of cAMP and ERK signalling pathways in HEK-RXFP1 cells (in words)” value [4] of the same compound?
A: full agonist, but with poor potency
